Reference: publication PMC4980623 (2016)

Tests used:
[1] = test system: HTG22 (5'-biotin, SPR) (DNA, G4) AGGGTTAGGGTTAGGGTTAGGG; assay: SPR kinetics, bivalent ligand model; conditions: K+ (100 mM; K+ and Na+ swapped elsewhere in the source), stronger of two sites
[2] = test system: Hairpin DNA (5'-biotin, SPR) (DNA, hairpin) TTGGCCAATGTTTGGCCAA; assay: SPR
[3] = test system: c-myc (pu27) (DNA, G4) TGGGGAGGGTGGGGAGGGTGGGGAAGG; assay: FRET melting; conditions: K+ (100 mM; K+ and Na+ swapped elsewhere in the source); various concentrations
[4] = test system: HTG22 (FRET, FAM/TAMRA) (DNA, G4) AGGGTTAGGGTTAGGGTTAGGG; assay: FRET melting; conditions: 20 μM compound, DNA:drug 1:10
[5] = test system: Hairpin DNA (DNA, hairpin) TTGGCCAATGTTTGGCCAA; assay: UV melting, 260 nm; conditions: 100 mM KCl; DNA:drug 1:10, 3 μM DNA; 20 mM cacodylic acid buffer, pH 7.3
[6] = test system: HTG22 (DNA, G4) AGGGTTAGGGTTAGGGTTAGGG; assay: UV-vis absorption titration; conditions: K+ (100 mM; K+ and Na+ swapped elsewhere in the source), 15 μM compound, 0-60 μM DNA, Tris-HCl
[7] = test system: c-kit 1 (DNA, G4) GGGAGGGCGCTGGGAGGAGGG; assay: FRET melting; conditions: various concentrations
[8] = test system: HTG22 (DNA, G4) AGGGTTAGGGTTAGGGTTAGGG; assay: CD titration, 285 nm; conditions: K+ (100 mM; K+ and Na+ swapped elsewhere in the source); 5 μM DNA, Tris-HCl
[9] = K+ (100 mM; K+ and Na+ swapped elsewhere in the source)
[10] = Na+ (100 mM; K+ and Na+ swapped elsewhere in the source)

Row | Ka2 ([1]; Ka1 1.65 × 10^5) [M⁻¹] | Ka [2] [M⁻¹] | binding [3] | Delta Tm [4, 9] [°C] | Delta Tm [4, 10] [°C] | Delta Tm [5] [°C] | binding ([6]; 16.41% hypochromicity, 3 nm red shift) | binding [7, 9] | binding [7, 10] | binding [8] | Ka2 ([1]; Ka1 2.82 × 10^5) [M⁻¹] | binding ([6]; 16.89% hypochromicity, 1 nm red shift) | SMILES
1 | 169000 | 60000 | no | 5.85 | 0.55 | 0.03 | yes | yes | no | yes | – | – | CN1CCN(Cc2nc3ccc4c(c3[nH]2)C(=O)c2ccccc2C4=O)CC1
2 | – | 40000 | no | 8.04 | 1.00 | 0.10 | – | yes | no | yes | 384000 | yes | C[N+]1(C)CCN(Cc2nc3ccc4c(c3[nH]2)C(=O)c2ccccc2C4=O)CC1
